Data: article PMC9154192 (PLoS Biology, 2022)
Like-named read-outs stand apart in the source and are kept apart here.

Type: in vivo, SD rats
Conditions: for Adrenal gland: Vacuolation, cortical, diffuse, Grade 1, no. of animals / Adrenal gland: Vacuolation, cortical, diffuse, Grade 2, no. of animals / Epididymis: Infiltrate, inflammatory cell, interstitum, Grade 1, no. of animals / Eye: Dysplasia, retina, focal, Grade 1, no. of animals / Harderian gland: Infiltrate, inflammatory cell, focal, Grade 1, no. of animals / Kidney: Basophilia, tubule, cortex, Grade 1, no. of animals / Kidney: Cast, hyaline, cortex, Grade 1, no. of animals / Kidney: Hydronephrosis, unilateral, Grade 3, no. of animals / Kidney: Infiltrate, inflammatory cell, interstitium, Grade 1, no. of animals / Kidney: Infiltrate, inflammatory cell, interstitium, Grade 2, no. of animals / Kidney: Mineralization, cortex, Grade 1, no. of animals / Kidney: Mineralization, corticomedullary junction, Grade 1, no. of animals / Kidney: Mineralization, medulla, Grade 1, no. of animals / Liver: Extramedullary hematopoiesis, Grade 1, no. of animals / Liver: Fatty change, sporadic/periportal, Grade 1, no. of animals / Liver: Fatty change, sporadic/periportal, Grade 2, no. of animals / Liver: Infiltrate, mononuclear cell, focal, Grade 1, no. of animals / Liver: Infiltrate, mononuclear cell, focal, Grade 2, no. of animals / Lung including bronchi: Alveolar macrophage aggregation, focal, Grade 1, no. of animals / Lung including bronchi: Infiltrate, mononuclear cell, alveolar, focal, Grade 1, no. of animals / Pituitary gland: Cyst, pars nervosa, Presence, no. of animals / Prostate: Infiltrate, inflammatory cell, interstitium, Grade 1, no. of animals / Salivary gland (parotid): Focus, hypertrophic, basophilic, focal, Grade 1, no. of animals / Spleen: Pigmentation, Grade 1, no. of animals / Submandibular lymph node: Increased, plasma cell, Grade 2, no. of animals / Thyroid gland: Ectopic thymus, Presence, no. of animals / Thyroid gland: Ultimobranchial cyst, Presence, no. of animals: female
Procedure: A subchronic toxicity study was performed for PP2S. Female and male rats were divided into a control group (0 mg/kg/day, n = 15), a low-dose group (167 mg/kg/day, n = 10), a medium-dose group (500 mg/kg/day, n = 10), and a high-dose group (1,500 mg/kg/day, n = 15), respectively. Thus, there were a total of 8 groups. The drug was administered by oral gavage at 10 mL/kg body weight daily for 4 weeks. Five animals each in the control and high-dose groups continued their treatments for 2 more weeks. Clinical symptoms were observed, and body weight was measured during the test period for a total of 6 weeks; 0.5% methyl cellulose 1,500 cP (Sigma, USA) in water for injection (JW Pharmaceutical, Korea) was used as a vehicle. Control animals were treated with only the same volume of the vehicle.
Histopathological examination was performed while performing a 4-week repeated oral toxicity study for PP2S. Organs and tissues from all animals subjected to autopsy were removed and fixed in 10% neutral buffered formalin. Among them, testes, eyeballs and optic nerve were fixed in Davidson's fixative and then in 10% neutral buffered formalin. For organs/tissues subjected to histopathological examination, specimens were prepared according to the histopathological specimen preparation SOP. For histopathological examination, organs and tissues of all subjects in the control group and the high-dose group, and macroscopically observed subjects in the low-dose group were examined. […] In addition, all other changes observed in histopathological examination were judged to be spontaneous or accidental. Those not specifically observed for all groups by organ were marked with a 'dash' symbol. Grade 1, minimal; Grade 2, slight; Grade 3, moderate; Grade 4, severe.

[1] = all groups (167, 500, 1,500 mg/kg; male, female; dosing and recovery period)
[2] = G2 167 mg/kg, dosing period, n=10
[3] = G3 500 mg/kg, dosing period, n=10
[4] = G4 1,500 mg/kg, dosing period, n=10
[5] = G4 1,500 mg/kg, recovery period, n=5

In the case of CCCCOc1ccc2cc(CN3C(=O)CC[C@H]3C(=O)OC)c3cc(OC)c(OC)cc3c2c1 [PP2S, Methyl (S)-1-((3-butoxy-6,7-dimethoxyphenanthren-9-yl)methyl)-5-oxopyrrolidine-2-carboxylate], the “histopathological change due to administration” value (all administration groups, 4-week repeated oral toxicity study) was “no change was observed”, the “Histopathological findings: Brain” value [1] was “-” and the “Histopathological findings: Cecum” value [1] was “-”. The “Histopathological findings: Colon” value [1] was “-”, the “Histopathological findings: Duodenum” value [1] was “-” and the “Histopathological findings: Exophagus” value [1] was “-”. For the same compound, the “Histopathological findings: Femur including bone marrow” value [1] was “-”, the “Histopathological findings: Heart” value [1] was “-” and the “Histopathological findings: Ileum” value [1] was “-”. For the same compound, the “Histopathological findings: Jejunum” value [1] was “-”, the “Histopathological findings: Mammary gland (inguinal)” value [1] was “-” and the “Histopathological findings: Mesenteric lymph node” value [1] was “-”. The “Histopathological findings: Optic nerve” value [1] was “-”, the “Histopathological findings: Pancreas” value [1] was “-” and the “Histopathological findings: Parathyroid gland” value [1] was “-”. The “Histopathological findings: Rectum” value [1] was “-”, the “Histopathological findings: Salivary gland (sublingual)” value [1] was “-” and the “Histopathological findings: Salivary gland (submandibular)” value [1] was “-”. The “Histopathological findings: Seminal vesicle” value [1] was “-”, the “Histopathological findings: Skin (inguinal)” value [1] was “-” and the “Histopathological findings: Spinal cord (thoracic)” value [1] was “-”. For the same compound, the “Histopathological findings: Sternum including bone marrow” value [1] was “-”, the “Histopathological findings: Stomach” value [1] was “-” and the “Histopathological findings: Testis” value [1] was “-”. The “Histopathological findings: Thymus” value [1] was “-”, the “Histopathological findings: Tongue” value [1] was “-” and the “Histopathological findings: Trachea” value [1] was “-”. The “Histopathological findings: Urinary bladder” value [1] was “-”, the “Histopathological findings: Uterus” value [1] was “-” and the “Histopathological findings: Vagina” value [1] was “-”. For the same compound, the “Adrenal gland: Vacuolation, cortical, diffuse, Grade 1, no. of animals” value (“Adrenal gland … Grade 1, no. of animals” for short) [2] was 0, the “Adrenal gland: Vacuolation, cortical, diffuse, Grade 2, no. of animals” value (from here on “Adrenal gland … Grade 2, no. of animals”) [2] was 0 and the “Epididymis: Infiltrate, inflammatory cell, interstitum, Grade 1, no. of animals” value (from here on “Epididymis: Infiltrate … no. of animals”) [2] was 0. For the same compound, the “Eye: Dysplasia, retina, focal, Grade 1, no. of animals” value (shortened to “Eye: Dysplasia … no. of animals”) [2] was 0, the “Harderian gland: Infiltrate, inflammatory cell, focal, Grade 1, no. of animals” value (shortened to “Harderian gland: Infiltrate … no. of animals”) [2] was 0 and the “Kidney: Basophilia, tubule, cortex, Grade 1, no. of animals” value (shortened to “Kidney: Basophilia … no. of animals”) [2] was 0. The “Kidney: Cast, hyaline, cortex, Grade 1, no. of animals” value (“Kidney: Cast … no. of animals” below) [2] was 0, the “Kidney: Hydronephrosis, unilateral, Grade 3, no. of animals” value (“Kidney: Hydronephrosis … no. of animals” for short) [2] was 0 and the “Kidney: Infiltrate, inflammatory cell, interstitium, Grade 1, no. of animals” value (shortened to “Kidney: Infiltrate … Grade 1, no. of animals”) [2] was 0. The “Kidney: Infiltrate, inflammatory cell, interstitium, Grade 2, no. of animals” value (“Kidney: Infiltrate … Grade 2, no. of animals” for short) [2] was 0, the “Kidney: Mineralization, cortex, Grade 1, no. of animals” value [2] was 0 and the “Kidney: Mineralization, corticomedullary junction, Grade 1, no. of animals” value [2] was 0. The “Kidney: Mineralization, medulla, Grade 1, no. of animals” value [2] was 0, the “Liver: Extramedullary hematopoiesis, Grade 1, no. of animals” value [2] was 0 and the “Liver: Fatty change, sporadic/periportal, Grade 1, no. of animals” value [2] was 0. For the same compound, the “Liver: Fatty change, sporadic/periportal, Grade 2, no. of animals” value [2] was 0, the “Liver: Infiltrate, mononuclear cell, focal, Grade 1, no. of animals” value (“Liver: Infiltrate … Grade 1, no. of animals” below) [2] was 0 and the “Liver: Infiltrate, mononuclear cell, focal, Grade 2, no. of animals” value (shortened to “Liver: Infiltrate … Grade 2, no. of animals”) [2] was 0. For the same compound, the “Lung including bronchi: Alveolar macrophage aggregation, focal, Grade 1, no. of animals” value [2] was 0, the “Lung including bronchi: Infiltrate, mononuclear cell, alveolar, focal, Grade 1, no. of animals” value [2] was 0 and the “Pituitary gland: Cyst, pars nervosa, Presence, no. of animals” value (“Pituitary gland: Cyst … no. of animals” for short) [2] was 0. For the same compound, the “Prostate: Infiltrate, inflammatory cell, interstitium, Grade 1, no. of animals” value (“Prostate: Infiltrate … no. of animals” for short) [2] was 0, the “Salivary gland (parotid): Focus, hypertrophic, basophilic, focal, Grade 1, no. of animals” value (“Salivary gland (parotid): Focus … no. of animals” below) [2] was 0 and the “Spleen: Pigmentation, Grade 1, no. of animals” value (from here on “Spleen … no. of animals”) [2] was 0. The “Submandibular lymph node: Increased, plasma cell, Grade 2, no. of animals” value [2] was 0, the “Thyroid gland: Ectopic thymus, Presence, no. of animals” value [2] was 0 and the “Thyroid gland: Ultimobranchial cyst, Presence, no. of animals” value [2] was 0. The “Adrenal gland … Grade 1, no. of animals” value [3] was 0, the “Adrenal gland … Grade 2, no. of animals” value [3] was 0 and the “Epididymis: Infiltrate … no. of animals” value [3] was 0. For the same compound, the “Eye: Dysplasia … no. of animals” value [3] was 0, the “Harderian gland: Infiltrate … no. of animals” value [3] was 0 and the “Kidney: Basophilia … no. of animals” value [3] was 0. The “Kidney: Cast … no. of animals” value [3] was 0, the “Kidney: Hydronephrosis … no. of animals” value [3] was 0 and the “Kidney: Infiltrate … Grade 1, no. of animals” value [3] was 0. For the same compound, the “Kidney: Infiltrate … Grade 2, no. of animals” value [3] was 0, the “Kidney: Mineralization, cortex, Grade 1, no. of animals” value [3] was 0 and the “Kidney: Mineralization, corticomedullary junction, Grade 1, no. of animals” value [3] was 0. For the same compound, the “Kidney: Mineralization, medulla, Grade 1, no. of animals” value [3] was 0, the “Liver: Extramedullary hematopoiesis, Grade 1, no. of animals” value [3] was 0 and the “Liver: Fatty change, sporadic/periportal, Grade 1, no. of animals” value [3] was 0. The “Liver: Fatty change, sporadic/periportal, Grade 2, no. of animals” value [3] was 0, the “Liver: Infiltrate … Grade 1, no. of animals” value [3] was 0 and the “Liver: Infiltrate … Grade 2, no. of animals” value [3] was 0. For the same compound, the “Lung including bronchi: Alveolar macrophage aggregation, focal, Grade 1, no. of animals” value [3] was 0, the “Lung including bronchi: Infiltrate, mononuclear cell, alveolar, focal, Grade 1, no. of animals” value [3] was 0 and the “Pituitary gland: Cyst … no. of animals” value [3] was 0. For the same compound, the “Prostate: Infiltrate … no. of animals” value [3] was 0, the “Salivary gland (parotid): Focus … no. of animals” value [3] was 0 and the “Spleen … no. of animals” value [3] was 0. The “Submandibular lymph node: Increased, plasma cell, Grade 2, no. of animals” value [3] was 0, the “Thyroid gland: Ectopic thymus, Presence, no. of animals” value [3] was 0 and the “Thyroid gland: Ultimobranchial cyst, Presence, no. of animals” value [3] was 0. The “Adrenal gland … Grade 1, no. of animals” value [4] was 0, the “Adrenal gland … Grade 2, no. of animals” value [4] was 0 and the “Epididymis: Infiltrate … no. of animals” value [4] was 0. The “Eye: Dysplasia … no. of animals” value [4] was 1, the “Harderian gland: Infiltrate … no. of animals” value [4] was 0 and the “Kidney: Basophilia … no. of animals” value [4] was 1. The “Kidney: Cast … no. of animals” value [4] was 0, the “Kidney: Hydronephrosis … no. of animals” value [4] was 1 and the “Kidney: Infiltrate … Grade 1, no. of animals” value [4] was 4. For the same compound, the “Kidney: Infiltrate … Grade 2, no. of animals” value [4] was 0, the “Kidney: Mineralization, cortex, Grade 1, no. of animals” value [4] was 0 and the “Kidney: Mineralization, corticomedullary junction, Grade 1, no. of animals” value [4] was 1. The “Kidney: Mineralization, medulla, Grade 1, no. of animals” value [4] was 0, the “Liver: Extramedullary hematopoiesis, Grade 1, no. of animals” value [4] was 0 and the “Liver: Fatty change, sporadic/periportal, Grade 1, no. of animals” value [4] was 5. For the same compound, the “Liver: Fatty change, sporadic/periportal, Grade 2, no. of animals” value [4] was 1, the “Liver: Infiltrate … Grade 1, no. of animals” value [4] was 2 and the “Liver: Infiltrate … Grade 2, no. of animals” value [4] was 2. The “Lung including bronchi: Alveolar macrophage aggregation, focal, Grade 1, no. of animals” value [4] was 0, the “Lung including bronchi: Infiltrate, mononuclear cell, alveolar, focal, Grade 1, no. of animals” value [4] was 0 and the “Pituitary gland: Cyst … no. of animals” value [4] was 0. For the same compound, the “Prostate: Infiltrate … no. of animals” value [4] was 0, the “Salivary gland (parotid): Focus … no. of animals” value [4] was 1 and the “Spleen … no. of animals” value [4] was 4. For the same compound, the “Submandibular lymph node: Increased, plasma cell, Grade 2, no. of animals” value [4] was 0, the “Thyroid gland: Ectopic thymus, Presence, no. of animals” value [4] was 2 and the “Thyroid gland: Ultimobranchial cyst, Presence, no. of animals” value [4] was 4. The “Adrenal gland … Grade 1, no. of animals” value [5] was 0, the “Adrenal gland … Grade 2, no. of animals” value [5] was 0 and the “Epididymis: Infiltrate … no. of animals” value [5] was 0. For the same compound, the “Eye: Dysplasia … no. of animals” value [5] was 0, the “Harderian gland: Infiltrate … no. of animals” value [5] was 0 and the “Kidney: Basophilia … no. of animals” value [5] was 0. The “Kidney: Cast … no. of animals” value [5] was 0, the “Kidney: Hydronephrosis … no. of animals” value [5] was 0 and the “Kidney: Infiltrate … Grade 1, no. of animals” value [5] was 3. The “Kidney: Infiltrate … Grade 2, no. of animals” value [5] was 0, the “Kidney: Mineralization, cortex, Grade 1, no. of animals” value [5] was 0 and the “Kidney: Mineralization, corticomedullary junction, Grade 1, no. of animals” value [5] was 0.
